Source: PubChem BioAssay AID1963865 (Molecular Pharmacology Branch, DTP, NCI, 2024)

Test system: KRAS PDC multicell spheroid viability
Assay: Anticancer human tumor 825966-067-R-J1-PDC patient-derived colon carcinoma cell line growth inhibition [KRAS2]
Settings: for IC50: curve of first compound; for viability, T/C: stronger effect = lower value
Text: Multicellular complex tumor spheroid response to RAS pathway inhibitors in combination with a targeted agents in patient-derived cell lines with oncogenic KRAS variants from multiple cancer types
A high-throughput screen of multi-cell type tumor spheroids was designed to identify active combinations of targeted small molecules and KRAS pathway inhibitors. Complex spheroids include a stromal component modeled by human endothelial cells (HUVEC) and fibroblasts modeled by human mesenchymal stem cells (MSCs). The concentration ranges selected for each drug and investigational agent were based upon clinically achievable concentrations if the clinical Cmax of the agent was known.
Compounds. The drugs and investigational agents: BI-3406 (NSC825286), BAY-293 (NSC824723), batoprotafib (TNO155; NSC825523), sotorasib (AMG 510; NSC818433), MRTX1257 (NSC819558), elimusertib (BAY 1895344; NSC800525), molibresib (GSK525762; NSC774829), temuterkib (LY3214996; NSC803410), venetoclax (NSC766270), alisertib (NSC759677), olaparib (NSC753686), talazoparib (NSC767125), erdafitinib (NSC781556), ipatasertib (NSC767898), cabozantinib (NSC761068), nintedanib (NSC756659), abemaciclib (NSC768073), docetaxel (NSC628503), trametinib (NSC758246), and sapanisertib (NSC764658) were obtained from the National Cancer Institute (NCI) Developmental Therapeutics Program Chemical Repository. The FDA-approved anticancer drug set is available from the Developmental Therapeutics Program. […] The stock solutions were prepared in dimethyl sulfoxide (DMSO, Sigma-Aldrich, St. Louis, MO, cat. D2650) at 800-fold the tested concentration and stored at -70 degrees C prior to their use. All drugs and investigational agents were tested over a range starting from a high concentration at or near the clinical Cmax and decreasing in half-log increments. If the clinical Cmax for an agent had not been determined, the highest concentration tested was 10 microM.
Cell Culture. All cells were maintained in an incubator at 37 degrees C and 5% CO2 with 95% humidity. The PDC lines were cultured according to standard operating procedures established by the NCI PDMR (https://pdmr.cancer.gov/sops/default.htm). Briefly, all PDCs were thawed and cultured in Matrigel-coated flasks prepared with a working solution of 1X Ham's F-12 nutrient mix, without supplementation (Invitrogen, Waltham, MA, cat. 11765054), 100 U/mL penicillin-streptomycin (Invitrogen, cat. 15140122), and 2.5% Matrigel (Corning Inc., Corning, NY, cat. 354248) for the first three passages. All PDCs were cultured in complete DMEM/F-12 media containing advanced DMEM/F-12 (Invitrogen, cat. 12634028), 4.9% defined fetal bovine serum, heat inactivated (HyClone Laboratories Inc., Logan, UT, cat. SH30070.03HI), 389 ng/mL hydrocortisone (Sigma-Aldrich, cat. H4001), 9.7 ng/mL human EGF recombinant protein (Invitrogen, cat. PHG0313), 23.4 microg/mL adenine (Sigma-Aldrich, cat. A2786), 97.3 U/mL penicillin-streptomycin (Invitrogen, cat. 15140122), 1.9 mM L-glutamine (Invitrogen, cat. 25030081), and 9.7 microM Y-27632 dihydrochloride (Tocris Bioscience, Bristol, United Kingdom, cat. 1254). The PDCs were cultured in complete DMEM/F12 media without 9.7 microM Y-27632 dihydrochloride for at least two passages prior to the screen. The established cell line HOP-62 was cultured in RPMI 1640 medium, HEPES (Invitrogen, cat. 22400105) with 10% defined fetal bovine serum (HyClone Laboratories Inc., cat. SH30070.03) and 2 mM L-glutamine (Invitrogen, cat. 25030081). The pooled donor HUVEC were cultured in endothelial cell growth medium 2 (PromoCell, Heidelberg, Germany, cat. C-22011) and the hMSC were cultured in mesenchymal stem cell growth medium 2 (PromoCell, cat. C-28009). For all experiments, HUVEC and hMSC were used at passages </=5, while the malignant cell lines were used at passages </=15. […]

[1] = second compound 0.1 µM, first compound 0.0316 µM
[2] = second compound 0.1 µM, first compound 0.1 µM
[3] = second compound 0.1 µM, first compound 0.316 µM
[4] = second compound 0.1 µM, first compound 1 µM
[5] = second compound 0.316 µM, first compound 0.0316 µM
[6] = second compound 0.316 µM, first compound 0.1 µM
[7] = second compound 0.316 µM, first compound 0.316 µM
[8] = second compound 0.316 µM, first compound 1 µM
[9] = second compound 1 µM, first compound 0.0316 µM
[10] = second compound 1 µM, first compound 0.1 µM
[11] = second compound 1 µM, first compound 0.316 µM
[12] = second compound 1 µM, first compound 1 µM
[13] = second compound 3.16 µM, first compound 0.0316 µM
[14] = second compound 3.16 µM, first compound 0.1 µM
[15] = second compound 3.16 µM, first compound 0.316 µM
[16] = second compound 3.16 µM, first compound 1 µM
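Note: spheroids exposed to compounds for 7 days.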
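Throughout, for viability, T/C: 100% = DMSO vehicle control viability.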

## COc1cc(Nc2ncc3c(n2)-c2ccc(Cl)cc2C(c2c(F)cccc2OC)=NC3)ccc1C(=O)O + C=CC(=O)N1CCN(c2nc(OCC3CCCN3C)nc3c2CCN(c2cccc4cccc(C)c24)C3)CC1CC#N
Second compound 0.0316 µM
  IC50: > 10000 nM
Second compound 0.1 µM
  IC50: > 10000 nM
Second compound 0.316 µM
  IC50: > 10000 nM
Second compound 1 µM
  IC50: > 10000 nM
Second compound 3.16 µM
  IC50: 4430 nM
Second compound 0.0316 µM, first compound 0.0316 µM
  viability, T/C: 136%
Second compound 0.0316 µM, first compound 0.1 µM
  viability, T/C: 129%
Second compound 0.0316 µM, first compound 0.316 µM
  viability, T/C: 144%
Second compound 0.0316 µM, first compound 1 µM
  viability, T/C: 137%
Second compound 0.0316 µM, first compound 3.16 µM
  viability, T/C: 138%
Second compound 0.0316 µM, first compound 10 µM
  viability, T/C: 127%
[1]
  viability, T/C: 129%
[2]
  viability, T/C: 142%
[3]
  viability, T/C: 123%
[4]
  viability, T/C: 129%
Second compound 0.1 µM, first compound 3.16 µM
  viability, T/C: 122%
Second compound 0.1 µM, first compound 10 µM
  viability, T/C: 140%
[5]
  viability, T/C: 124%
[6]
  viability, T/C: 154%
[7]
  viability, T/C: 112%
[8]
  viability, T/C: 134%
Second compound 0.316 µM, first compound 3.16 µM
  viability, T/C: 129%
Second compound 0.316 µM, first compound 10 µM
  viability, T/C: 141%
[9]
  viability, T/C: 104%
[10]
  viability, T/C: 150%
[11]
  viability, T/C: 153%
[12]
  viability, T/C: 135%
Second compound 1 µM, first compound 3.16 µM
  viability, T/C: 121%
Second compound 1 µM, first compound 10 µM
  viability, T/C: 114%
[13]
  viability, T/C: 45%
[14]
  viability, T/C: 130%
[15]
  viability, T/C: 73.1%
[16]
  viability, T/C: 104%
Second compound 3.16 µM, first compound 3.16 µM
  viability, T/C: 67.1%
Second compound 3.16 µM, first compound 10 µM
  viability, T/C: 8.84%

## CCN1CCN(Cc2ccc(Nc3ncc(F)c(-c4cc(F)c5nc(C)n(C(C)C)c5c4)n3)nc2)CC1 + CC1OCC2(CCN(c3cnc(Sc4ccnc(N)c4Cl)c(N)n3)CC2)C1N
Second compound 0.1 µM
  IC50: > 1000 nM
Second compound 0.316 µM
  IC50: > 1000 nM
Second compound 1 µM
  IC50: > 1000 nM
Second compound 3.16 µM
  IC50: 842 nM
Second compound 10 µM
  IC50: 64.9 nM
Second compound 0.1 µM, first compound 0.00316 µM
  viability, T/C: 121%
Second compound 0.1 µM, first compound 0.01 µM
  viability, T/C: 110%
[1]
  viability, T/C: 102%
[2]
  viability, T/C: 129%
[3]
  viability, T/C: 143%
[4]
  viability, T/C: 124%
Second compound 0.316 µM, first compound 0.00316 µM
  viability, T/C: 105%
Second compound 0.316 µM, first compound 0.01 µM
  viability, T/C: 115%
[5]
  viability, T/C: 96.7%
[6]
  viability, T/C: 139%
[7]
  viability, T/C: 135%
[8]
  viability, T/C: 74.4%
Second compound 1 µM, first compound 0.00316 µM
  viability, T/C: 105%
Second compound 1 µM, first compound 0.01 µM
  viability, T/C: 113%
[9]
  viability, T/C: 112%
[10]
  viability, T/C: 130%
[11]
  viability, T/C: 164%
[12]
  viability, T/C: 87.3%
Second compound 3.16 µM, first compound 0.00316 µM
  viability, T/C: 95.2%
Second compound 3.16 µM, first compound 0.01 µM
  viability, T/C: 96.7%
[13]
  viability, T/C: 98.1%
[14]
  viability, T/C: 117%
[15]
  viability, T/C: 150%
[16]
  viability, T/C: 39.2%
Second compound 10 µM, first compound 0.00316 µM
  viability, T/C: 72%
Second compound 10 µM, first compound 0.01 µM
  viability, T/C: 84.8%
Second compound 10 µM, first compound 0.0316 µM
  viability, T/C: 72.4%
Second compound 10 µM, first compound 0.1 µM
  viability, T/C: 36%
Second compound 10 µM, first compound 0.316 µM
  viability, T/C: 18.4%
Second compound 10 µM, first compound 1 µM
  viability, T/C: 10.7%
